TGI and GI50 data for nine molecules are collected here from PubChem BioAssay (NCI).

Molecules are shown by their SMILES.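 Growth conditions: 96-well plates. Treatment: test compound, 48 hours, 5 concentrations. Analysis: linear interpolation between bracketing concentrations; unreached endpoints set to highest concentration. GI50 is the concentration that inhibits growth by half. At the TGI there is no net growth.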 Bounds are passed on as bounds.

Test systems include SK-OV-3 ovarian; EKVX NSCLC; M14 melanoma; CAKI-1 renal; A549 NSCLC; SF-268 CNS; OVCAR-8 ovarian; SN12C renal; CCRF-CEM leukemia; NCI-H460 lung.
Experiment in all cases: DTP human tumour cell line panel, 48 h

What is called TGI is the concentration at which net growth stops. Low values mean more potent growth arrest, high ones less potent growth arrest. As a reminder, the GI50 is the concentration that inhibits growth by half.

As to `O=C(O)c1ccc(S(=O)(=O)N=Nc2c(O)[nH]c3ccccc23)cc1`, the TGI in the test with SK-OV-3 ovarian, in the test on EKVX NSCLC, in the test on M14 melanoma, in the test on CAKI-1 renal, in the test on A549 NSCLC and with SF-268 CNS was > 100 µM each time. Also, the TGI with OVCAR-8 ovarian, in the test on SN12C renal, in the test with CCRF-CEM leukemia and in the test on NCI-H460 lung was > 100 µM in each case.

For the molecule `CCc1ccccc1-n1c2nc(=O)n(C)c(=O)c-2nc2ccccc21`, the TGI is > 100 µM with SK-OV-3 ovarian; 24.6 µM in the test on EKVX NSCLC; 20.8 µM with M14 melanoma; 49.3 µM in the test with CAKI-1 renal; 27.6 µM with A549 NSCLC; 24 µM with SF-268 CNS. Besides, the TGI in the test on OVCAR-8 ovarian was determined as 21.6 µM; with SN12C renal it was 26.6 µM; in the test with CCRF-CEM leukemia, 39.3 µM; with NCI-H460 lung it was 20.8 µM.

Consider `O=C(/C=C/c1c(O)ccc2ccccc12)c1cccc2ccccc12`, for which the TGI in the test with SK-OV-3 ovarian, with EKVX NSCLC, in the test with M14 melanoma, with CAKI-1 renal, with A549 NSCLC and in the test with SF-268 CNS was > 100 µM throughout. For the same molecule, the TGI in the test on OVCAR-8 ovarian is > 100 µM; with SN12C renal it was > 100 µM; in the test on CCRF-CEM leukemia it was > 67.8 µM; with NCI-H460 lung, > 100 µM.

For `O=C(CCc1ccccc1)On1nnc2ccccc2c1=O`, the TGI with SK-OV-3 ovarian, in the test on EKVX NSCLC, in the test with M14 melanoma, with CAKI-1 renal, with A549 NSCLC and with SF-268 CNS was > 100 µM in each case. The TGI in the test on OVCAR-8 ovarian, with SN12C renal, in the test on CCRF-CEM leukemia and in the test with NCI-H460 lung was > 100 µM each time.

In the case of `COc1cc(/C=C2\CC3C4CC=C5C[C@@H](N6CCCC6)CC[C@]5(C)C4CC[C@]3(C)[C@H]2OC(C)=O)ccc1OCCN1CCCCC1` (stereo partly drawn), the GI50 in the test with SK-OV-3 ovarian is 2.15 µM; with EKVX NSCLC, 1.99 µM; in the test with M14 melanoma, 1.58 µM; with CAKI-1 renal, 1.95 µM; with SF-268 CNS, 2.26 µM; in the test on OVCAR-8 ovarian, 1.8 µM. Besides, the GI50 was 0.775 µM in the test on SN12C renal, 0.0346 µM with CCRF-CEM leukemia and 3.18 µM with NCI-H460 lung. For the same molecule, the TGI in the test with SK-OV-3 ovarian turned out to be 4.39 µM; in the test with EKVX NSCLC, 4.3 µM; with M14 melanoma it was 3 µM; with CAKI-1 renal it was 3.95 µM; in the test on SF-268 CNS, 5.6 µM; with OVCAR-8 ovarian, 3.42 µM. For the same molecule, the values for the TGI in the test with SN12C renal, in the test with CCRF-CEM leukemia and with NCI-H460 lung were 2.56 µM, 0.777 µM and > 100 µM, respectively.

Turning to `COc1cc(-c2nn(C(=O)NS(=O)(=O)c3ccc(C)cc3)cc2-c2ccncc2)ccc1Cl`, the GI50 was 3.38 µM in the test on SK-OV-3 ovarian; 2.78 µM in the test with EKVX NSCLC; 3.6 µM with M14 melanoma; 3.15 µM in the test with CAKI-1 renal; 4.43 µM in the test with A549 NSCLC; 4.32 µM with SF-268 CNS. Further, the GI50 with OVCAR-8 ovarian was 2.02 µM; in the test with SN12C renal, 3.02 µM; with CCRF-CEM leukemia it was 14.1 µM; in the test on NCI-H460 lung, 13.3 µM. Besides, the TGI in the test with SK-OV-3 ovarian was 13.6 µM; in the test with EKVX NSCLC, 27.6 µM; with M14 melanoma, 14.2 µM; in the test on CAKI-1 renal, 26.9 µM; with A549 NSCLC, 35 µM; in the test on SF-268 CNS, > 100 µM. Moreover, the TGI in the test with OVCAR-8 ovarian is 93.6 µM; in the test on SN12C renal it was 24.1 µM; in the test with CCRF-CEM leukemia, > 100 µM; with NCI-H460 lung, 38.5 µM.

Take `COC(=O)c1c2c(c(C)[n+]([O-])c1C)C(=O)C(NCc1cccc(OC)c1)=CC2=O`: the GI50 in the test with SK-OV-3 ovarian is 3.53 µM; with EKVX NSCLC, 2.11 µM; in the test on M14 melanoma, 1.79 µM; in the test on CAKI-1 renal, 2.79 µM; in the test with A549 NSCLC, 2.35 µM; in the test with SF-268 CNS, 2.86 µM. Moreover, the GI50 in the test with OVCAR-8 ovarian is 2.52 µM; in the test on SN12C renal, 1.97 µM; with CCRF-CEM leukemia, 3.09 µM; in the test with NCI-H460 lung, 1.71 µM. Besides, the TGI came to 13.6 µM with SK-OV-3 ovarian; 5.44 µM with EKVX NSCLC; 3.72 µM with M14 melanoma; 10.3 µM in the test with CAKI-1 renal; 9.36 µM in the test on A549 NSCLC; 11.7 µM in the test with SF-268 CNS. The TGI in the test with OVCAR-8 ovarian amounted to 10.3 µM; with SN12C renal, 4.94 µM; in the test on CCRF-CEM leukemia, 17.1 µM; with NCI-H460 lung it was 8 µM.

As to `O=C1NC(=O)C2(CCC(O)C2)c2cc[n+]([O-])cc21` (stereo not drawn), the TGI in the test with SK-OV-3 ovarian, in the test on EKVX NSCLC, in the test with M14 melanoma, in the test on CAKI-1 renal, in the test on A549 NSCLC and in the test on SF-268 CNS was > 100 µM each time. In addition, the TGI with OVCAR-8 ovarian, in the test on SN12C renal, in the test with CCRF-CEM leukemia and in the test with NCI-H460 lung was > 100 µM throughout.

`Cc1c2ncccc2nc2[nH]c3ccc(OCCN(C)C)cc3c12`: the GI50 with SK-OV-3 ovarian was 2.3 µM; in the test on EKVX NSCLC, 2.9 µM; in the test on M14 melanoma it was 3.01 µM; with CAKI-1 renal, 3.61 µM; in the test on A549 NSCLC, 1.87 µM; in the test on SF-268 CNS it was 2.16 µM. Further, the GI50 was 1.49 µM with OVCAR-8 ovarian, 2.5 µM with SN12C renal, 2.1 µM in the test with CCRF-CEM leukemia and 1.93 µM with NCI-H460 lung. Also, the TGI with SK-OV-3 ovarian came to 17.5 µM; in the test with EKVX NSCLC, 21.2 µM; in the test on M14 melanoma, 15.6 µM; in the test with CAKI-1 renal, 21.3 µM; with A549 NSCLC it was 10.3 µM; with SF-268 CNS it was 15.4 µM. In addition, the TGI amounted to 16.5 µM in the test with OVCAR-8 ovarian, 28.5 µM in the test with SN12C renal, 20.9 µM in the test on CCRF-CEM leukemia and 11 µM in the test with NCI-H460 lung.
